Patent US20050164951A1, “Inhibitors for the soluble epoxide hydrolase” (The Regents of the University of California, priority 2003, published 2005)
Read-outs that look alike come from different tables or passages of the source.

Key:
mouse sEH = target: T1, mouse sEH (Mus musculus, UniProt P34914); assay: Inhibition of recombinant mouse sEH, IC50 assay with 4-nitrophenyl-trans-2,3-epoxy-3-phenylpropyl carbonate as substrate; format: biochemical
T1 construct: made in house; host or cells: baculovirus expression system
T1 sequence (P34914 1-554): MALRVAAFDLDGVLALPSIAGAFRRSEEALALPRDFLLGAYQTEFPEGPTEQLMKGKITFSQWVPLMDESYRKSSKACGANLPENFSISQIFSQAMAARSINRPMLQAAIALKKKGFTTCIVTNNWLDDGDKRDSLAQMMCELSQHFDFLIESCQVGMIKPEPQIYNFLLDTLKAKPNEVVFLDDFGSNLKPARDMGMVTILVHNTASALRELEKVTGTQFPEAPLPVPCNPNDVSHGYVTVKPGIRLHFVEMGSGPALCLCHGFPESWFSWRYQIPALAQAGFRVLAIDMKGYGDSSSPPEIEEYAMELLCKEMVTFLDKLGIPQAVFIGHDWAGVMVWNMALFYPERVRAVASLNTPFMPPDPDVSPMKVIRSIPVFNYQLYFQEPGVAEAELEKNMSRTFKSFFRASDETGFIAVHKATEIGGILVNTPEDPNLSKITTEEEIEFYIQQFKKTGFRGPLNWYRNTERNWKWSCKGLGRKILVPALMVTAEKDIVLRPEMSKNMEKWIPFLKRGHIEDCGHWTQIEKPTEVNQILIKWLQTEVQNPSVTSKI
Method: (§1) Assays were performed in triplicate. […] The curve was generated from at least three separate runs, each in triplicate, to obtain the standard deviation (SD) given in Table 1 thru Table 4.

human sEH = target: T2, human sEH (Homo sapiens, UniProt P34913); assay: Inhibition of recombinant human sEH, IC50 assay with 4-nitrophenyl-trans-2,3-epoxy-3-phenylpropyl carbonate as substrate; format: biochemical; conditions: for IC90: 0.24 μM enzyme
T2 construct: made in house; host or cells: baculovirus expression system
T2 sequence (P34913 1-555): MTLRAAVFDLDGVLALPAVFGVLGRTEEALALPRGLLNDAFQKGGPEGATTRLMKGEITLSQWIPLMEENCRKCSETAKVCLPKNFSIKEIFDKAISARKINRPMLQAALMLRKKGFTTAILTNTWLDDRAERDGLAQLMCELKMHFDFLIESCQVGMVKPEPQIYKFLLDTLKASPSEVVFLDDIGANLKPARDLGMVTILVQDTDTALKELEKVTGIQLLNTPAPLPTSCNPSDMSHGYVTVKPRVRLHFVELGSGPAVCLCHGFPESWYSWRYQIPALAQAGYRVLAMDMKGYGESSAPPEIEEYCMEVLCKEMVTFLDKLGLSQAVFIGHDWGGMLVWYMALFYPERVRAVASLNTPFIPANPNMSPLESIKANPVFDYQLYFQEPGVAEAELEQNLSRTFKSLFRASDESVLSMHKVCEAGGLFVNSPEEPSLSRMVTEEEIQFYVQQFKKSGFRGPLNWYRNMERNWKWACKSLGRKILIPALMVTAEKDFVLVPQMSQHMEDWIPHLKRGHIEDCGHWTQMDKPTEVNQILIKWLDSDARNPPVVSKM
Method: as §1

[1] = Tables 17a and b, read-out: IC50 (μM) Mouse sEH
[2] = Tables 17a and b, read-out: IC50 (μM) Human sEH
[3] = Table 4, […] enzyme, 5 min preincubation, pH 7.4, 30° C., means ± SD, read-out: IC50 (μM) Human sEH
[4] = Table 9, established protocols, read-out: IC50 (μM) Mouse sEH
[5] = Table 9, established protocols, read-out: IC50 (μM) Human sEH
[6] = Table 5, 0.12 μM enzyme, 5 min preincubation, pH 7.4, 30° C., means ± SD
[7] = Table 5, […] enzyme, 5 min preincubation, pH 7.4, 30° C., means ± SD, read-out: Mouse sEH IC50
[8] = Table 5, 5 min preincubation, pH 7.4, 30° C., means ± SD
[9] = Table 5, […] enzyme, 5 min preincubation, pH 7.4, 30° C., means ± SD, read-out: Human sEH IC50
[10] = Table 4, 0.12 μM enzyme, 5 min preincubation, pH 7.4, 30° C., means ± SD, read-out: IC50 (μM) Mouse sEH

Structure (SMILES): O=C(CC1CCCCC1)Nc1ccccc1 [Compound 964]
- IC50 (mouse sEH; [1]): 3.7 ± 0.01 µM
- IC50 (human sEH; [2]): 16 ± 0.01 µM

Structure (SMILES): CCNC(=O)CCCCCCCCCCCNC(=O)NC12CC3CC(CC(C3)C1)C2 [Compound 792, 1-(1-Adamantyl)-3-(11-ethylaminocarbonylundecyl)urea]
- IC50 (mouse sEH; Table 4, […] enzyme, 5 min preincubation, pH 7.4, 30° C., means ± SD, read-out: IC50 (μM) Mouse sEH): 0.05 ± 0.01 µM
- IC50 (human sEH; [3]): 0.1 ± 0.01 µM

Structure (SMILES): O=C(Nc1ccc2ccccc2c1)NC1CCCCC1 [Compound 998]
- IC50 (mouse sEH; [1]): 0.1 ± 0.01 µM
- IC50 (human sEH; [2]): 3.7 ± 0.01 µM

Structure (SMILES): CCCCCOC(=O)c1cccc(NC(=O)NC23CC4CC(CC(C4)C2)C3)c1 [Compound 859]
- IC50 (mouse sEH; [4]): 0.05 ± 0.01 µM
- IC50 (human sEH; [5]): 0.1 ± 0.01 µM

Structure (SMILES): CCOC(=O)CCCCCCCCCCCOC(=O)CCCNC(=O)NC12CC3CC(CC(C3)C1)C2 [Compound 882]
- IC90 (mouse sEH; [6]): 630 ± 40 nM
- IC50 (mouse sEH; [7]): 0.05 ± 0.01 µM
- IC90 (human sEH; [8]): 1800 ± 200 nM
- IC50 (human sEH; [9]): 0.1 ± 0.01 µM

Structure (SMILES): CCCCC(CC)OCCCCCNC(=O)NC12CC3CC(CC(C3)C1)C2 (stereo not drawn) [Compound 910]
- IC50 (mouse sEH; [1]): 0.05 ± 0.01 µM
- IC50 (human sEH; [2]): 0.24 ± 0.01 µM

Structure (SMILES): O=C(CCCNC(=O)NC12CC3CC(CC(C3)C1)C2)NC(C(=O)N1CCCC1C(=O)O)c1c[nH]cn1 (stereo not drawn) [Compound 1012]
- IC50 (mouse sEH; [1]): 0.09 ± 0.01 µM
- IC50 (human sEH; [2]): 100 ± 0.01 µM

Structure (SMILES): O=C(NCCCCCOCCC(F)(F)F)NC12CC3CC(CC(C3)C1)C2 [Compound 957]
- IC50 (mouse sEH; [1]): 0.05 ± 0.01 µM
- IC50 (human sEH; [2]): 0.23 ± 0.01 µM

Structure (SMILES): O=C(NCCCCCCCCCCCC(=O)OCC12CC3CC(CC(C3)C1)C2)NC12CC3CC(CC(C3)C1)C2 [Compound 786, 1-(1-adamantyl)-3-(11-(1-adamantyl)methyloxycarbonylundecyl)urea]
- IC50 (mouse sEH; [10]): 0.07 ± 0.01 µM
- IC50 (human sEH; [3]): 0.23 ± 0.02 µM

Structure (SMILES): CCOC(=O)CCCCCCCCCOC(=O)CCCNC(=O)NC12CC3CC(CC(C3)C1)C2 [Compound 880]
- IC90 (mouse sEH; [6]): 260 ± 30 nM
- IC50 (mouse sEH; [7]): 0.05 ± 0.01 µM
- IC90 (human sEH; [8]): 680 ± 10 nM
- IC50 (human sEH; [9]): 0.1 ± 0.01 µM

Structure (SMILES): O=C(CC1CCCCC1)Nc1cccc(Cl)c1 [Compound 966]
- IC50 (mouse sEH; [1]): 0.58 ± 0.01 µM
- IC50 (human sEH; [2]): 2.1 ± 0.01 µM

Structure (SMILES): O=C(CC12CC3CC(CC(C3)C1)C2)NCCCc1ccccc1 [Compound 967]
- IC50 (mouse sEH; [1]): 0.07 ± 0.01 µM
- IC50 (human sEH; [2]): 0.12 ± 0.01 µM

Structure (SMILES): O=C(NCCCCCCCCCCCC(=O)OCc1ccccc1)NC12CC3CC(CC(C3)C1)C2 [Compound 804, 1-(1-Adamantyl)-3-(11-benzyloxycarbonylundecyl)urea]
- IC50 (mouse sEH; [10]): 0.07 ± 0.01 µM
- IC50 (human sEH; [3]): 0.13 ± 0.01 µM

Structure (SMILES): N#CC(OC(=O)CCCNC(=O)NC12CC3CC(CC(C3)C1)C2)c1ccccc1 (stereo not drawn) [Compound 946]
- IC50 (mouse sEH; [1]): 0.05 ± 0.01 µM
- IC50 (human sEH; [2]): 0.15 ± 0.01 µM

Structure (SMILES): O=C(NCCCCCOCCOCCOCc1ccccc1)NC12CC3CC(CC(C3)C1)C2 [Compound 951]
- IC50 (mouse sEH; Table 7, established protocols, read-out: IC50 (μM) Mouse sEH): 0.05 ± 0.01 µM
- IC50 (human sEH; Table 7, established protocols, read-out: IC50 (μM) Human sEH): 0.1 ± 0.01 µM

Structure (SMILES): CCCCC(O)CCCCNC(=O)NC12CC3CC(CC(C3)C1)C2 (stereo not drawn) [Compound 994]
- IC50 (mouse sEH; [1]): 0.05 ± 0.01 µM
- IC50 (human sEH; [2]): 0.1 ± 0.01 µM

Structure (SMILES): CCCCCOC(=O)C1CCCC(NC(=O)NC23CC4CC(CC(C4)C2)C3)C1 (stereo not drawn) [Compound 861]
- IC50 (mouse sEH; [4]): 0.05 ± 0.01 µM
- IC50 (human sEH; read-out: IC50 (μM) Human sEH): 0.1 ± 0.01 µM

Structure (SMILES): O=C(NCCCC(=O)OCc1ccccc1)NC12CC3CC(CC(C3)C1)C2 [Compound 945]
- IC50 (mouse sEH; [1]): 0.05 ± 0.01 µM
- IC50 (human sEH; [2]): 0.19 ± 0.01 µM

Structure (SMILES): O=C(O)CCNC(=O)NC1CCCCC1 [Compound 109]
- IC50 (mouse sEH; Table 1, […] enzyme, 5 min preincubation, pH 7.4, 30° C., [S] = 40 μM, means ± SD of three experiments, read-out: IC50 (μM) Mouse sEH): 122 ± 2 µM
- IC50 (human sEH; Table 1, […] enzyme, 5 min preincubation, pH 7.4, 30° C., [S] = 40 μM, means ± SD of three experiments, read-out: IC50 (μM) Human sEH): 358 ± 2 µM

Structure (SMILES): CC(C)=CCC/C(C)=C/COC1CCC(NC(=O)NC23CC4CC(CC(C4)C2)C3)CC1 (stereo not drawn) [Compound 984]
- IC50 (mouse sEH; [4]): 0.05 ± 0.01 µM
- IC50 (human sEH; [5]): 0.1 ± 0.01 µM

Structure (SMILES): CC(C)=CCCC(C)CCOCCCCCNC(=O)NC12CC3CC(CC(C3)C1)C2 (stereo not drawn) [Compound 915]
- IC50 (mouse sEH; [1]): 0.05 ± 0.01 µM
- IC50 (human sEH; [2]): 0.12 ± 0.01 µM

Structure (SMILES): CCOC(=O)c1ccc(C(C#N)OC(=O)CCCNC(=O)NC23CC4CC(CC(C4)C2)C3)cc1 (stereo not drawn) [Compound 947]
- IC50 (mouse sEH; [1]): 0.07 ± 0.01 µM
- IC50 (human sEH; [2]): 0.11 ± 0.01 µM
